Reference: patent publication US10947188B2, “Small molecule ferroptosis inducers” (THE TRUSTEES OF COLUMBIA UNIVERSITY IN THE CITY OF NEW YORK, priority 2016, dated 2021)
In brackets after ≈: the same amount, converted by molar mass.

Tested on: HT-1080 cells
Test: Lethality of commercially available CIL41/70 structural analogs
Format: cell-based
Conditions: Homo sapiens, tested once in technical triplicates
Method: 1,000 cells per 36 μl were seeded in each well in 384-well plates. Lethal compounds were dissolved, and a twofold, 12-point dilution series was prepared in DMSO. Compound solutions were further diluted with media at 1:25, and 4 μl per well of the diluted solutions was added to cell cultures immediately after cells were seeded. […] When other cell-death-modulating compounds (100 nM sodium selenite, 1 μM cerivastatin, 100 μg/mL mevalonic acid) were used in cotreatments, they were supplemented to cell culture for 24 h before lethal compounds were added to cell culture, after which cells were further incubated for 24 h at 37° C. under 5% CO2. On the day of the viability measurement, we added 10 μl per well of 50% Alamar Blue diluted in media (Life Technologies) and further incubated the cells at 37° C. for 6 h. Fluorescence intensity (excitation/emission: 530/590) was measured with a Victor 3 plate reader (PerkinElmer), and the normalized viability was calculated as VL=(IL−I0)/(IV−I0), where VL, I0, IV, and IL are the normalized viability and the raw fluorescence intensities from the wells containing media, cells treated with a vehicle (negative control), and cells with the lethal compound (L), respectively. When the effect of a chemical modulator (M) on L was calculated, we instead used the equation VL|M=(IM,L−I0)/(IM,V−I0), where VL|M, IM,L and IM,V are the normalized viability, and fluorescence intensity from cells treated with […], respectively. The viability was typically measured in biological triplicate unless otherwise specified. A representative dose-response curve, the mean and standard error of normalized viability from one replicate were plotted. HT-1080 viability after modulator treatments corresponding to FIG. 3C and FIGS. 5E-5F is available in FIGS. 19A-19C.
Their lethality was tested once in HT-1080 cells in technical triplicates.

Structure (SMILES) | EC50
COc1ccccc1C/C(N)=N/OC(=O)c1ccc2c(c1)OCO2 [A05] | 5.04 µg/mL (≈ 15.4 µM)
N/C(Cc1ccc(Cl)cc1Cl)=N\OC(=O)C1CCCCC1 [AS1] | > 20 µg/mL
N/C(Cc1ccc(Cl)cc1Cl)=N\OC(=O)/C=C/c1ccccc1 [AS2] | 12.3 µg/mL (≈ 35.1 µM)
CC(C)(C)c1ccc(C(=O)O/N=C(\N)Cc2cccs2)cc1 [B02] | 3.3 µg/mL (≈ 10.4 µM)
CCc1nc(C)ccc1OC/C(N)=N/OC(C)=O [CB1] | > 20 µg/mL
N/C(Cc1ccc([N+](=O)[O-])cc1)=N\OC(=O)C1CCCCC1 [CB2] | > 20 µg/mL
Cc1ccccc1OCC(=O)O/N=C(\N)Cc1ccc(Cl)cc1 [CB3] | > 20 µg/mL
N/C(Cc1ccc(Cl)cc1)=N\OC(=O)COc1ccccc1Cl [CB4] | > 20 µg/mL
COc1ccccc1C/C(N)=N/OC(=O)COc1ccc(C(C)(C)C)cc1 [CB5] | > 20 µg/mL
N/C(Cc1ccc([N+](=O)[O-])cc1)=N\OC(=O)COc1cccc2ccccc12 [CB6] | > 20 µg/mL
